According to patent US20230263822A1, “MODULATION OF FACTOR 11 EXPRESSION” (Ionis Pharmaceuticals, Inc., priority 2008, published 2023):

Key:
Factor 11 mRNA = Factor 11 mRNA in cynomolgus monkey liver, day 85 (Example 45); assay type: in vivo; conditions: cynomolgus monkeys, s.c. escalating doses 5-25 mg/kg over 12 weeks
Procedure: (§1) Groups, each consisting of two male and three female monkeys, were injected subcutaneously with ISIS 416838, ISIS 416850, ISIS 416858, ISIS 416864, or ISIS 417002 in escalating doses. Antisense oligonucleotide was administered to the monkeys at 5 mg/kg three times per a week for week 1; 5 mg/kg twice per week for weeks 2 and 3; 10 mg/kg three times per week for week 4; 10 mg/kg twice per week for weeks 5 and 6; 25 mg/kg three times per week for week 7; and 25 mg/kg twice per week for weeks 8, 9, 10, 11, and 12. One control group, consisting of two male and three female monkeys, was injected subcutaneously with PBS according to the same dosing regimen. An additional experimental group, consisting of two male and three female monkeys, was injected subcutaneously with ISIS 416850 in a chronic, lower dose regimen. Antisense oligonucleotide was administered to the monkeys at 5 mg/kg three times per week for week 1; 5 mg/kg twice per week for week 2 and 3; 10 mg/kg three times per week for week 4; and 10 mg/kg twice per week for weeks 5 to 12. Body weights were measured weekly. Blood samples were collected 14 days and 5 days before the start of treatment and subsequently once per week for Factor 11 protein activity analysis in plasma, fibrinogen measurement, PT and aPTT measurements, bleeding times, and measurement of various hematologic factors. On day 85, the monkeys were euthanized by exsanguination while under deep anesthesia, and organs harvested for further analysis.
On day 85, RNA was extracted from liver tissue for real-time PCR analysis of Factor 11 using primer probe set LTS00301 (forward primer sequence […], designated herein as SEQ ID NO 271; reverse primer sequence […], designated herein as SEQ ID NO: 272; and probe sequence TGCAGGCACAGCATCCCAGTGTTCTX, designated herein as SEQ ID NO. 273). Results are presented as percent inhibition of Factor 11, relative to PBS control.

platelet aggregation = test: Platelet aggregation assay, ADP and/or collagen (Example 45); assay type: in vivo, cynomolgus monkeys; conditions: escalating dose regimen
Procedure: as §1
Platelet aggregation was initiated by adding 1 mmol/L ADP and/or 3 μg collagen (depending on the collection day, as outlined in Table 121) to plasma samples, and was allowed to proceed for 10 minutes. Aggregation was characterized by recording the change in the electrical resistance or impedance and the change in the initial slope of aggregation after platelet shape change. The aggregation test was performed twice per sample on each collection day and the average value was taken. The ISIS oligonucleotide, ISIS 416850, given with the chronic dose regimen is distinguished from the other oligonucleotides with an asterisk (*).

[1] = Liver function, ALT, AST, bilirubin in cynomolgus monkeys (Example 45); assay type: in vivo; conditions: plasma, escalating dose regimen
Procedure: as §1
The ISIS oligonucleotide, ISIS 416850, given with the chronic dose regimen is distinguished from the other oligonucleotides with an asterisk (*).

[2] = Kidney function, urine protein to creatinine ratio in cynomolgus monkeys (Example 45); assay type: in vivo
Procedure: as §1
To evaluate the impact of ISIS oligonucleotides on kidney function, urine samples were collected.

[3] = Tolerability in Sprague-Dawley rats: liver function (Example 35); conditions: plasma, 50 mg/kg s.c. twice per week for 6 weeks

Substance	% inhibition of Factor 11 mRNA in the cynomolgus monkey liver relative to the PBS control (Factor 11 mRNA) [%]	platelet aggregation (platelet aggregation; day 15 (with ADP)) [Ohms]	platelet aggregation (platelet aggregation; day 36 (with ADP)) [Ohms]	platelet aggregation (platelet aggregation; day 43 (with collagen)) [Ohms]	platelet aggregation (platelet aggregation; day 57 (with ADP)) [Ohms]	platelet aggregation (platelet aggregation; day 64 (with collagen)) [Ohms]	platelet aggregation (platelet aggregation; day 78 (with ADP)) [Ohms]	platelet aggregation (platelet aggregation; day 85 (with ADP)) [Ohms]	platelet aggregation (platelet aggregation; day 85 (with collagen)) [Ohms]	platelet aggregation (platelet aggregation; day −5 (with collagen)) [Ohms]	ALT ([1]; day 22) [IU/L]	AST ([1]; day 22) [IU/L]	Bilirubin ([1]; day 22) [mg/dL]	ALT ([1]; day 43) [IU/L]	AST ([1]; day 43) [IU/L]	Bilirubin ([1]; day 43) [mg/dL]	ALT ([1]; day 64) [IU/L]	AST ([1]; day 64) [IU/L]	Bilirubin ([1]; day 64) [mg/dL]	ALT ([1]; day 85) [IU/L]	other results
416838 (antisense GCAACCGGGATGATGAGTGC; 5-10-5 gapmer, further chemistry not given here) [compound 416838]	37																				
416850 (antisense TGCACAGTTTCTGGCAGGCC; 5-10-5 gapmer, further chemistry not given here) [compound 416850]	84																				
416858 (antisense ACGGCATTGGTGCACAGTTT; 5-10-5 gapmer, further chemistry not given here) [compound 416858]	90																				
416864 (antisense GGCAGCGGACGGCATTGGTG; 5-10-5 gapmer, further chemistry not given here) [compound 416864]	44																				
417002 (antisense GGTGCACAGTTTCTGGCAGG; 2-13-5 gapmer chemistry, further chemistry not given here) [compound 417002]	57																				
ISIS 416858: MOE gapmer, nucleobases 1275 to 1318 of SEQ ID NO: 1 (Table 8) (antisense ACGGCATTGGTGCACAGTTT; MOE gapmer, wing and gap sizes not given here)		19	17	16	11	14	8	18	23	22	28	38	0.18	36	39	0.14	47	50	0.12	50	AST ([1]; day 85): 49 IU/L; Bilirubin ([1]; day 85): 0.14 mg/dL; ALT ([1]; day −14): 47 IU/L; AST ([1]; day −14): 58 IU/L; Bilirubin ([1]; day −14): 0.27 mg/dL; urine protein to creatinine ratio ([2]; Day 80): 0.10; urine protein to creatinine ratio ([2]; Day 84): 0.07; ALT [3]: 13 IU/L; AST [3]: 4 IU/L; Albumin [3]: 2; Bilirubin [3]: 4 mg/dL
ISIS 416864: MOE gapmer, nucleobases 1275 to 1318 of SEQ ID NO: 1 (Table 8) (antisense GGCAGCGGACGGCATTGGTG; MOE gapmer, wing and gap sizes not given here)		20	17.8	20	18	17	13	22	28	27	37	41	0.22	36	40	0.17	43	46	0.16	43	AST ([1]; day 85): 56 IU/L; Bilirubin ([1]; day 85): 0.17 mg/dL; ALT ([1]; day −14): 54 IU/L; AST ([1]; day −14): 76 IU/L; Bilirubin ([1]; day −14): 0.31 mg/dL; urine protein to creatinine ratio ([2]; Day 80): 0.36; urine protein to creatinine ratio ([2]; Day 84): 0.34; ALT [3]: 471 IU/L; AST [3]: 68 IU/L; Albumin [3]: 4; Bilirubin [3]: 3 mg/dL
ISIS 417002: MOE gapmer, nucleobases 1275 to 1318 of SEQ ID NO: 1 (Table 8) (antisense GGTGCACAGTTTCTGGCAGG; MOE gapmer, wing and gap sizes not given here)		16	13.9	19	18	18	18	22	24	21	36	44	0.20	35	42	0.21	42	37	0.14	116	AST ([1]; day 85): 50 IU/L; Bilirubin ([1]; day 85): 0.12 mg/dL; ALT ([1]; day −14): 61 IU/L; AST ([1]; day −14): 114 IU/L; Bilirubin ([1]; day −14): 0.26 mg/dL; urine protein to creatinine ratio ([2]; Day 80): 0.18; urine protein to creatinine ratio ([2]; Day 84): 0.24; ALT [3]: 44 IU/L; AST [3]: 11 IU/L; Albumin [3]: 3; Bilirubin [3]: 12 mg/dL
